21 molecules from patent US9334265B2, “3-amino-pyrazole derivatives useful against tuberculosis” (GLAXO GROUP LIMITED, priority 2010, dated 2016) can be followed below.

The target of one assay is T1, InhA (Mycobacterium tuberculosis, UniProt P9WGR1).
T1 construct: made in house; host or cells: E. coli
Put plainly: Mycobacterium tuberculosis InhA Inhibition Assay (Enzyme Assay). It is filed as biochemical. The conditions noted are these: 5 nM InhA, 50 μM DDCoA, 50 μM NADH, PIPES buffer pH 6.8, initial velocities of NADH consumption. The protocol:
InhA is able to reduce 2-trans enoyl-CoA esters with concomitant oxidation of NADH to NAD^+. The assay format is based on the kinetic detection of NADH consumption.
Assay for InhA inhibition is carried out with mycobacterium recombinant protein expressed and purified form E. coli. Standard assay conditions for the determination of kinetic constants and inhibitors activity use 5 nM of InhA, 50 μM of Dodecenoyl-CoA synthesized and purified as described by Quémard et al (DDCoA) and 50 μM of NADH as substrates, and it is carried out in 30 mM PIPES buffer pH 6.8, containing 0.05% of BSA. […] Triclosan is used as positive control in every experiment. One μl of compounds is added to the wells containing 25 μl of the DDCoA+NADH mix, the reaction is started by adding 50 μl of the enzyme solution. Fluorescence from NADH is followed at room temperature during 20 minutes in a fluorescent plate reader (excitation at 340 nm; emission at 480 nm). IC50 values are determined using initial velocities of NADH consumption. • Quémard A, Sacchettini J C, Dessen A, et al. Enzymatic characterization of the target for isoniazid in Mycobacterium tuberculosis. Biochemistry 1995; 34:8235-41. Results of the Mycobacterium tuberculosis InhA Inhibition Assay (Enzyme Assay)

Assay [1] relates to Mycobacterium tuberculosis H37Rv. Put plainly: Mycobacterium tuberculosis H37Rv Inhibition Assay (Whole Cell Assay). It is filed as cell-based. The conditions noted are these: ATCC 25618 / H37Rv, H37Rv strain (ATCC25618), Middlebrook 7H9, six days at 37° C., resazurin fluorescence after 48 hours. On the technique in general: Alamar Blue is a resazurin reagent that responds to reducing activity.

Values after ≈ are worked out from the molar mass of the structure shown. Where two headings read alike, the source gives them in different places.

T1 sequence (P9WGR1 whole entry, looked up): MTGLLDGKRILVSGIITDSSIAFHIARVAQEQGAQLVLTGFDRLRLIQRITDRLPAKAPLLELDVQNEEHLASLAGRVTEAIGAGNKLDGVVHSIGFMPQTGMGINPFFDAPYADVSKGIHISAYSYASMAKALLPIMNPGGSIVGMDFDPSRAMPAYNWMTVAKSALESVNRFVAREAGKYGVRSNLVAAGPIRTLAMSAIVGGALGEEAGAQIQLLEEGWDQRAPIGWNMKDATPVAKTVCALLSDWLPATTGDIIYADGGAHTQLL

Broadly, the IC50 is the midpoint of a concentration-inhibition curve. Broadly, the MIC is the lowest concentration that inhibits growth of the organism. Molecule `CCc1csc(C(C)(O)c2nnc(Nc3ccn(Cc4csc(C)n4)n3)s2)n1` (stereo not drawn) [Example 47, 1-(4-ethylthiazol-2-yl)-1-(5-((1-((2-methylthiazol-4-yl)methyl)-1H-pyrazol-3-yl)amino)-1,3,4-thiadiazol-2-yl)ethanol] came in with an IC50 against InhA (IC50 value) not above 115 nM. The molecule further displayed an MIC in assay [1] not above 1 µM.
For `Cc1csc([C@@](C)(O)c2nnc(Nc3ccn(Cc4csc(C)n4)n3)s2)n1` (single isomer, unassigned) [Example 44], in that order: 238 to 1190 nM and more than 10 µM.
The molecule `Cc1ccn(C(C)c2nnc(Nc3cc(C)n(Cc4ncccc4F)n3)s2)n1` (stereo not drawn) [Example 29, N-{1-[(3-fluoro-2-pyridinyl)methyl]-5-methyl-1H-pyrazol-3-yl}-5-[1-(3-methyl-1H-pyrazol-1-yl)ethyl]-1,3,4-thiadiazol-2-amine] registered an IC50 against InhA (IC50 value) not above 125 nM. This molecule also registered an MIC in assay [1] not above 4 µM.
On to `Cc1csc(C(C)(O)c2nnc(Nc3ccn(Cc4c(F)cncc4F)n3)s2)n1` (stereo not drawn) [Example 32, 1-[5-({1-[(3,5-difluoro-4-pyridinyl)methyl]-1H-pyrazol-3-yl}amino)-1,3,4-thiadiazol-2-yl]-1-(4-methyl-1,3-thiazol-2-yl)ethanol], for which the half-inhibitory concentration (IC50) at InhA (IC50 value) was more than 1150 nM. In assay [1], this molecule showed an MIC of more than 10 µM.
`Cc1ccn(C(C)c2nnc(Nc3ccn(Cc4cccnc4F)n3)s2)n1` (stereo not drawn) [Example 10, N-{1-[(2-fluoro-3-pyridinyl)methyl]-1H-pyrazol-3-yl}-5-[1-(3-methyl-1H-pyrazol-1-yl)ethyl]-1,3,4-thiadiazol-2-amine]: the IC50 against InhA (IC50 value) was 130 to 260 nM. Moreover, in assay [1], the MIC is more than 10 µM.
Consider `Cc1csc(C(C)(O)c2nnc(Nc3ccn(Cc4csc(C)n4)n3)s2)n1` (racemic) [Example 21, 1-(4-methyl-1,3-thiazol-2-yl)-1-[5-({1-[(2-methyl-1,3-thiazol-4-yl)methyl]-1H-pyrazol-3-yl}amino)-1,3,4-thiadiazol-2-yl]ethanol], for which, at InhA (read-out: IC50 value), the IC50 is not above 119 nM. The molecule also returned a minimum inhibitory concentration (MIC) in assay [1] not above 1 µM.
Molecule `Cc1csc(C(C)(O)c2nnc(Nc3cc(C)n(Cc4ncccc4F)n3)s2)n1` (stereo not drawn) [Example 28, 1-[5-({1-[(3-fluoro-2-pyridinyl)methyl]-5-methyl-1H-pyrazol-3-yl}amino)-1,3,4-thiadiazol-2-yl]-1-(4-methyl-1,3-thiazol-2-yl)ethanol] showed an IC50 on InhA (IC50 value) not above 116 nM. Also, the MIC in assay [1] was not above 4 µM.
`COc1c(C)cnc(Cn2ccc(Nc3nnc(C(C)(O)c4nc(C)cs4)s3)n2)c1C` (stereo not drawn) [Example 31, 1-{5-[(1-{[3,5-dimethyl-4-(methyloxy)-2-pyridinyl]methyl}-1H-pyrazol-3-yl)amino]-1,3,4-thiadiazol-2-yl}-1-(4-methyl-1,3-thiazol-2-yl)ethanol] showed an IC50 against InhA (IC50 value) of 219 to 1090 nM. Further, the minimal inhibitory concentration (MIC) in assay [1] was more than 10 µM.
Turning to `Cc1ccn(C(C)c2nnc(Nc3ccn(Cc4nccc(C)c4F)n3)s2)n1` (stereo not drawn) [Example 3, N-{1-[(3-fluoro-4-methyl-2-pyridinyl)methyl]-1H-pyrazol-3-yl}-5-[1-(3-methyl-1H-pyrazol-1-yl)ethyl]-1,3,4-thiadiazol-2-amine], the IC50 at InhA (read-out: IC50 value) was not above 125 nM. The molecule further came in with an MIC in assay [1] of more than 10 µM.
Regarding `Cc1csc(C(C)(O)c2nnc(Nc3ccn(Cc4cc(C)on4)n3)s2)n1` (stereo not drawn) [Example 22, 1-[5-({1-[(5-methyl-3-isoxazolyl)methyl]-1H-pyrazol-3-yl}amino)-1,3,4-thiadiazol-2-yl]-1-(4-methyl-1,3-thiazol-2-yl)ethanol], on InhA (read-out: IC50 value), the IC50 was 124 to 248 nM. In assay [1], this molecule registered a minimal inhibitory concentration (MIC) of 4 to 10 µM (≈ 1.61 to 4.03 µg/mL).
`Cc1csc(C(C)(O)c2nnc(Nc3ccn(Cc4nccc(C)c4F)n3)s2)n1` (stereo not drawn) [Example 37, 1-[5-({1-[(3-fluoro-4-methyl-2-pyridinyl)methyl]-1H-pyrazol-3-yl}amino)-1,3,4-thiadiazol-2-yl]-1-(4-methyl-1,3-thiazol-2-yl)ethanol]: the IC50 at InhA (read-out: IC50 value) was not above 116 nM. This molecule gave a minimal inhibitory concentration (MIC) in assay [1] not above 4 µM.
In the case of `Cc1ccn([C@@H](C)c2nnc(Nc3ccn(Cc4ncccc4F)n3)s2)n1` (single isomer, unassigned) [Example 40], the half-inhibitory concentration (IC50) against InhA (IC50 value) was not above 130 nM. Further, the MIC in assay [1] was not above 4 µM.
Consider `Cc1csc(C(C)c2nnc(Nc3ccn(Cc4ncccc4F)n3)s2)n1` (stereo not drawn) [Example 34, N-{1-[(3-fluoro-2-pyridinyl)methyl]-1H-pyrazol-3-yl}-5-[1-(4-methyl-1,3-thiazol-2-yl)ethyl]-1,3,4-thiadiazol-2-amine], for which the IC50 at InhA (read-out: IC50 value) is not above 125 nM. Moreover, in assay [1], the minimum inhibitory concentration (MIC) was not above 4 µM.
For the molecule `Cc1ccn(C(C)c2nnc(Nc3nn(Cc4csc(C)n4)c4ccccc34)s2)n1` (stereo not drawn) [Example 46, N-{5-[1-(3-methyl-1H-pyrazol-1-yl)ethyl]-1,3,4-thiadiazol-2-yl}-1-[(2-methyl-1,3-thiazol-4-yl)methyl]-1H-indazol-3-amine], the half-inhibitory concentration (IC50) against InhA (IC50 value) is more than 1150 nM. In assay [1], this molecule came in with an MIC of more than 10 µM.
For `Cc1csc(C(C)(O)c2nnc(Nc3ccn(Cc4ncccc4F)n3)s2)n1` (racemic) [Example 38, 1-[5-({1-[(3-fluoro-2-pyridinyl)methyl]-1H-pyrazol-3-yl}amino)-1,3,4-thiadiazol-2-yl]-1-(4-methyl-1,3-thiazol-2-yl)ethanol], the IC50 at InhA (read-out: IC50 value) was not above 120 nM. In assay [1], this molecule gave a minimal inhibitory concentration (MIC) not above 1 µM.
In the case of `Cc1cc(C)n(C(C)c2nnc(Nc3ccn(C(C)c4ncccc4F)n3)s2)n1` (stereo not drawn) [Example 35, 5-[1-(3,5-dimethyl-1H-pyrazol-1-yl)ethyl]-N-{1-[1-(3-fluoro-2-pyridinyl)ethyl]-1H-pyrazol-3-yl}-1,3,4-thiadiazol-2-amine], on InhA (read-out: IC50 value), the concentration for half-maximal inhibition (IC50) is not above 121 nM. Further, the minimal inhibitory concentration (MIC) in assay [1] was more than 10 µM.
In turn, `Cc1csc([C@](C)(O)c2nnc(Nc3ccn(Cc4ncccc4F)n3)s2)n1` (single isomer, unassigned) [Example 41] yielded a half-maximal inhibitory concentration (IC50) against InhA (IC50 value) not above 120 nM. Further, the MIC in assay [1] was not above 1 µM.
For `Cc1csc(C(C)(O)c2nnc(Nc3ccn(Cc4ncc(F)cc4F)n3)s2)n1` (stereo not drawn) [Example 12, 1-[5-({1-[(3,5-difluoro-2-pyridinyl)methyl]-1H-pyrazol-3-yl}amino)-1,3,4-thiadiazol-2-yl]-1-(4-methyl-1,3-thiazol-2-yl)ethanol], in that order: 115 to 230 nM and not above 4 µM.
On to `Cc1ccn([C@H](C)c2nnc(Nc3ccn(Cc4ncccc4F)n3)s2)n1` (single isomer, unassigned) [Example 39], for which the IC50 against InhA (IC50 value) lay within 260 to 1300 nM. The same molecule gave an MIC in assay [1] of more than 10 µM.
Turning to `Cc1cccc(Cn2ccc(Nc3nnc(C(C)n4nc(C)cc4C)s3)n2)n1` (stereo not drawn) [Example 1, 5-[1-(3,5-dimethyl-1H-pyrazol-1-yl)ethyl]-N-{1-[(6-methyl-2-pyridinyl)methyl]-1H-pyrazol-3-yl}-1,3,4-thiadiazol-2-amine], on InhA (read-out: IC50 value), the IC50 is not above 127 nM. Besides, the MIC in assay [1] was more than 10 µM.
For `Cc1csc(C(C)(O)c2nnc(Nc3ccn(Cc4cccc(F)n4)n3)s2)n1` (stereo not drawn) [Example 18, 1-[5-({1-[(6-fluoro-2-pyridinyl)methyl]-1H-pyrazol-3-yl}amino)-1,3,4-thiadiazol-2-yl]-1-(4-methyl-1,3-thiazol-2-yl)ethanol], in that order: not above 120 nM and not above 1 µM.
